Source: ChEMBL document CHEMBL1201862, “PubChem BioAssay data set” (2004)
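Growth conditions: 96-well plates. Treatment: test compound, 48 hours, 5 concentrations. Analysis: linear interpolation between bracketing concentrations; unreached endpoints set to highest concentration. GI50: concentration for 50% inhibition of growth.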 Active and inactive are the calls of the source. Rule as the data show it: active = GI50 up to about 1.1 µM and inactive = higher.

Tests used:
Assay in all cases: NCI tumour cell line growth inhibition, 48 h
BT-549 = system: BT-549
PC-3 = system: PC-3
DMS-114 = system: DMS-114
EKVX = system: EKVX
LXFL 529 = system: LXFL 529
M19-MEL = system: M19-MEL
HOP-18 = system: HOP-18
RXF 631 = system: RXF 631

Measured: GI50

Nc1nc(Cl)nc2c1ncn2C1CCC(CO)O1 (configuration not stated)
inactive: BT-549 > 100 µM | PC-3 > 100 µM

Nc1ccc2c(c1)C(=O)N(O)C2=O
inactive: DMS-114 > 100 µM | EKVX > 100 µM | LXFL 529 > 100 µM | M19-MEL > 100 µM

NC(Cc1ccc(OCc2ccccc2)cc1)C(=O)NC(Cc1ccccc1)C(=O)Oc1c(Cl)c(Cl)c(Cl)c(Cl)c1Cl (configuration not stated)
inactive: BT-549 17.5 µM | EKVX 17.7 µM | PC-3 17.7 µM

Cc1ccc2c(c1)C(=O)N(N(C)C)CC(=O)N2
inactive: DMS-114 > 100 µM | EKVX > 100 µM | HOP-18 > 100 µM | LXFL 529 > 100 µM | M19-MEL > 100 µM

CN(C)CCCNC(=O)N/N=C/c1ccccn1
inactive: EKVX > 10 µM | PC-3 > 10 µM

CC(C)C[C@@H](NC(=O)[C@@H](Cc1cccc2ccccc12)NC(=O)N1CCOCC1)B(O)O
inactive: BT-549 36.3 µM | PC-3 > 100 µM

O=c1ccc2nc3cc(Br)ccc3sc-2c1
inactive: DMS-114 > 100 µM | EKVX > 100 µM | LXFL 529 89.7 µM | M19-MEL 55.1 µM

c1ccc2c(c1)SP1Sc3ccccc3P21 (configuration not stated)
inactive: DMS-114 > 79.3 µM | EKVX > 100 µM | HOP-18 18.1 µM | M19-MEL > 100 µM

COc1ccc(C2CC(c3c(O)ccc4ccccc34)=NN2)cc1OC (configuration not stated)
inactive: BT-549 3.92 µM | EKVX 6.01 µM | PC-3 3.54 µM

[O-][n+]1c2c([n+]([O-])c3ccccc31)-c1cccc3cccc-2c13
inactive: PC-3 > 100 µM

COc1cc2c(cc1OC)CCN=C2
inactive: BT-549 > 100 µM | PC-3 > 100 µM

COC1CCC(O)C(CO)O1 (configuration not stated)
inactive: EKVX > 100 µM | LXFL 529 50.6 µM | M19-MEL 60.7 µM

CN(C)C(=O)OCOC(=O)N(C)C
inactive: DMS-114 > 100 µM | EKVX > 100 µM | HOP-18 > 100 µM | M19-MEL > 100 µM

CC1(C)OC2CC(=O)OCC23C1CC(=O)C1(C)C3CCC2(C)C(c3ccoc3)OC(=O)C3OC321 (configuration not stated)
inactive: DMS-114 > 125 µM | EKVX > 58.1 µM | HOP-18 > 125 µM | M19-MEL > 125 µM

O=C(O)C12CCCC(CCC1)C2
inactive: DMS-114 > 100 µM | EKVX > 100 µM | LXFL 529 > 100 µM | RXF 631 > 100 µM
